Assay results published in patent US10786521B2, “Methods and compositions for treatment of COPD diseases” (Shanghai KE Pharmaceutical Co., LTD, priority 2014, dated 2020).

What was measured:
[1] = tested on: asthmatic airway constriction in acute asthma mouse model; experiment: Airway resistance (Rrs, FlexiVent) in OVA-induced, methacholine-challenged asthma mice; assay type: in vivo, C57BL/6 mice
Description: Asthma mice were established as reported previously. Briefly, six to eight-week-old female C57BL/6 mice were carried out by intraperitoneal injection of 100 μg ovalbumin and 4 mg Imject Alum (ThermoFisher Scientific) in total volume of 0.2 mL on days 0 and 14. These mice were then challenged with 1.5%-2% aerosolized ovalbumin for 1 h on days 24, 25 and 26. The efficacy of drugs was evaluated by measuring airway resistance in these mice 24 h after the last challenge.
(§1) The airway resistance was measured through an invasive method as described in previous reports. In brief, the mice were anesthetized with 240 mg/kg Avertin and the trachea was cannulated with an 18-gauge metal needle. Mechanical ventilation (FlexiVent; SCIREQ Inc., Montreal, Canada) was applied at a frequency of 150 breaths per minute, a tidal volume of 10 ml/kg, and positive end-expiratory pressure of 2.5 cm H2O. Prior to methacholine challenge, deep inflation was applied followed by administration of aerosolized PBS to obtain stabilization of airway resistance (Rrs, cmH2O·s/mL). The Rrs after PBS was considered to be the baseline. Then mice were challenged with sequential concentrations of methacholine with a dose of 2.0, 4.0, 8.0, 16, 32 and 64 mg/mL by an ultrasonic nebulizer until reaching bronchoconstrictive phase that was four to five folds greater than baseline. Three minutes after the last dose of methacholine inhalation, the reagents were delivered by the same ultrasonic nebulizer. The Rrs measurements were performed every 30 s throughout the experiments. The negative control for these studies was PBS, because all the solvents for reagents used here were PBS. As a positive control, albuterol (3 μg; Sigma), the most widely used β-agonist as an effective bronchodilator for asthma therapy, was used.
as §1, with “Acute asthma model mice were established as reported previously. Briefly, six to eight-week-old female C57BL/6 mice were carried out by intraperitoneal injection of 100 μg ovalbumin and 4 mg Imject Alum (ThermoFisher Scientific) in total volume of 0.2 mL on days 0 and 14. These mice were then challenged with 1.5%-2% aerosolized ovalbumin for 1 h on days 24, 25 and 26. The efficacy of drugs by measuring airway resistance in these mice 24 h was evaluated after the last challenge. The airway” for “The airway”

[2] = tested on: airway smooth muscle (bronchial rings); experiment: Relaxation of evoked isometric force of bronchial rings (wire myograph); assay type: cell-based, mice
Description: Briefly, the entire respiratory tree was rapidly removed and immersed in Krebs-Henseleit buffer (118.1 mM NaCl, 4.7 mM KCl, 1.2 mM MgSO4, 2.5 mM CaCl2, 1.0 mM NaH2PO4, 25 mM NaHCO3 and 11.1 mM glucose, pH 7.4). Bronchial rings, 2 mm in length, were isolated from pulmonary bronchi using a dissection microscope. Then the bronchial segments were mounted in a small-vessel wire myograph chamber (Danish Myo Technology, Aarhus, Denmark) by threading on two steel wires (40 μm in diameter) secured to two supports. One support was attached to a force transducer for measurements of isometric force development, and the other was attached to a micrometer controlling ring circumference. The preparation was kept in the chamber, immersed in 5 ml of Krebs-Henseleit solution, bubbled with 5% CO2 and 95% O2 and maintained at 37° C. The initial isometric tension of bronchial ring was set to 0 mN prior to equilibration for 20 min. The bronchial ring was then stretched in order to keep the force at 5 mN followed by an additional equilibration for 20 min. The isometric forces produced by bronchial ring was recorded with a data acquisition and analysis program (Danish Myo Technology, Aarhus, Denmark).
The robust relaxation effect and low risk of toxicity of KE on airway smooth muscle indicates its promising prospects for development. To identify the active ingredients of KE, the KE was divided into three parts including EtOAc phase, n-BuOH phase and water phase using EtOAc and n-BuOH sequential extraction. Upon the airway smooth muscle rings reached a relative steady contraction state evoked by MCh, accumulated volume of these three phases was added to assess the relaxation capacity. […] On the other hand, 1 μL of EtOAc phase just relaxed the rings to 90%.
Their dose-responsive effect on relaxation of airway smooth muscle was measured. When the force evoked by acetylcholine reached a relatively steady state, kudinosides were added to the bath in cumulative concentrations (0.1 μM, 0.3 μM, 1 μM, 3 μM, 10 μM, 30 μM). […] When the concentration of kudinoside D increased to 10 μM, about 50% of the force was relaxed. Strikingly, upon treatment with 30 μM of kudinoside D, more than 80% of the force was relaxed (FIG. 5B). Similarly, 30 μM of kudinoside A also led to 80% inhibition of evoked force. Note that the relaxation effect of kudinosides was completely reversible, because the relaxed muscles restored response to MCh after washing off.

[3] = tested on: cytosolic calcium in primary airway smooth muscle cells; experiment: Calcium image (Fluo-4) of primary airway smooth muscle cells stimulated with acetylcholine; assay type: cell-based; details: 10 μM compound, then 100 μM acetylcholine; around 16 to 18 minutes
Description: Primary airway smooth muscle cells were stimulated with 100 μM acetylcholine (ACh) (upper panels), resulting elevation and maintenance of calcium signals (arrow heads indicate typical alteration of the cells) for 8 minutes. After washing out ACh, new buffer containing 10 μM Kudinoside D was added, and then stimulated with 100 μM acetylcholine.
Calcium image (1-3): Ca^2+ signal was measured by recording 488 nm laser excited Fluo-4 fluorescence with a laser confocal microscope (FV-1000, Olympus). After 3 times washing with D-Hanks solution, primary cultured airway smooth muscle cells were loaded with 2.5 μM Fluo-4 AM and 0.02% pluronic acid (F127) in D-Hanks for 30 min at room temperature. Then washed 3 times with D-Hanks, incubated in H-T buffer at 37° C. for 40 min. Ca^2+ signal was measured by recording 488 nm laser excited Fluo-4 fluorescence with a laser confocal microscope (FV-1000, Olympus).

SMILES: C[C@@H]1O[C@@H](O[C@H]2[C@H](O[C@H]3CC[C@@]4(C)C(CC[C@]5(C)C4C=CC4=C6[C@]7(CC[C@](C)(OC7=O)[C@@]6(C)O)CC[C@]45C)C3(C)C)OC[C@H](O)[C@@H]2O[C@@H]2O[C@H](CO)[C@@H](O)[C@H](O)[C@H]2O)[C@H](O)[C@H](O)[C@H]1O (stereo partly drawn) [Kudinoside D]
- reduction of airway resistance, 0.03 μg ([1]; 0.03 μg inhaled): slight reduction
- airway resistance reduced to, at 1 minute after inhalation, 0.03 μg ([1]; 0.03 μg inhaled, 1 minute): 69.65±5.87%
- reduction of airway resistance, 0.3 μg ([1]; 0.3 μg inhaled): significant reduction of airway resistance
- airway resistance reduced to, at 1 minute after inhalation, 0.3 μg ([1]; 0.3 μg inhaled, 1 minute): 67.79±6.77%
- reduction of airway resistance at 3 minutes after inhalation compared with 3 μg albuterol, 0.3 μg ([1]; 0.3 μg inhaled, 3 minutes): more reduction of airway resistance than that of 3 μg of albuterol
- reduction of airway resistance, 3 μg ([1]; 3 μg inhaled): significant reduction of airway resistance
- airway resistance reduced to, at 1 minute after inhalation, 3 μg ([1]; 3 μg inhaled, 1 minute): 45.81±6.87%
- reduction of airway resistance at 3 minutes after inhalation compared with 3 μg albuterol, 3 μg ([1]; 3 μg inhaled, 3 minutes): more reduction of airway resistance than that of 3 μg of albuterol
- force relaxed at 10 μM ([2]; force evoked by acetylcholine, cumulative concentrations, 10 μM): about 50%
- force relaxed / inhibition of evoked force at 30 μM ([2]; force evoked by acetylcholine, cumulative concentrations, 30 μM): more than 80%
- relaxation of evoked force of airway smooth muscle / bronchial rings ([2]; in vitro, concentration not given): significantly relaxed bronchial rings in a dose-dependent manner
- cytosolic calcium signal after acetylcholine stimulation [3]: significant reduction of calcium
